Measured values published in patent US20250108036A1, “COMPOSITIONS FOR REMOVING SENESCENT CELLS AND USES THEREOF” (LIFECEUTIX CO., LTD., priority 2021, published 2025).

What was measured:
[1] = open field test in obese mice given senescent cells killed by test compounds (Example 16, Table 72); type: in vivo, C57BL6J mice; conditions: obese mice administered senescent cells whose death was induced by the test compound
From the text: (§1) To obtain preadipocytes, groin fat tissue was collected from an 8-week-old female C57BL6J mouse (purchased from KRIBB Laboratory Animal Resource Center). The fat tissue was cut into small pieces and treated with collagenase to decompose the fat tissue, then centrifuged to collect the stromal vascular fraction (SVF) containing preadipocytes. It was washed with a washing medium (HBSS, purchased from GenDEPOT; 3.5% Albumin Fraction V, purchased from GenDEPOT; 100 U/ml Penicillin & Streptomycin, purchased from Invitrogen), mixed again, and extracted by filtering through a 100 μm nylon mesh. The isolated preadipocytes were cultured in the designated medium (DMEM, purchased from GenDEPOT; 20% FBS, purchased from GenDEPOT; 100 U/ml Penicillin & Streptomycin, purchased from Invitrogen). In the same manner as Example 1, cells were treated with doxorubicin at a concentration of 250 nM for 24 hours and cultured for an additional 21 days to induce cell senescence. Cells were treated with doxorubicin at a concentration of 250 nM for 24 hours and cultured for an additional 21 days to induce cell senescence. By treating the test compounds in the same manner as in Example 13, it was confirmed using an optical microscope that the death of most senescent cells was induced. The killed preadipocytes were washed using PBS (purchased from Welgene) and then mixed with PBS at a concentration of 5×10^5 cells/200 μl. It was administered subcutaneously to 8-week-old female C57BL6J mice (purchased from KRIBB Laboratory Animal Resource Center). At 7 and 10 days after administration of the killed senescent cells, 2 million senescent preadipocytes were mixed in 200 μl of PBS and administered into the abdominal cavity of mice. After administration of killed senescent cells, obesity was induced in mice with a high-fat diet (DIO) for 8 weeks in the same manner as in Example 9-1. Afterwards, the mouse was sacrificed in the same manner as in Example 7-2, total RNA was extracted from the groin fat tissue, and qRT-PCR was performed and analyzed using the synthesized cDNA. […] The mRNA amount of p16, MMP3, and IL6 without administration of senescent cells whose death was induced by the test compounds was calculated as 100%, and the amount of p16, MMP3, and IL6 after administration of the senescent cells whose death was induced by the test compounds was compared with them. Furthermore, an open field test was performed to analyze aging-related frailty in mice using the same method as Example 7-7. […] The amount of activity evaluation without administration of senescent cells whose death was induced by the test compounds was calculated as 100% and compared it with the amount of activity evaluation after administration of senescent cells whose death was induced by the test compounds.

p16, MMP3, IL6 = p16, MMP3, IL6 mRNA qRT-PCR in groin fat of obese mice given senescent cells killed by test compounds (Example 16, Table 72); type: in vivo, C57BL6J mice; conditions: obese mice administered senescent cells whose death was induced by the test compound
From the text: as §1, with “compounds. […]” for “compounds.”

[2] = system: foreskin cells in which senescence was induced by doxorubicin; experiment: CellTiter-Glo cell viability of doxorubicin-induced senescent foreskin cells (Examples 1-2, 10, 11, 13; Tables 4, 63, 65); type: cell-based, human; conditions: Homo sapiens, 72 h, doxorubicin-induced senescent foreskin cells, CellTiter-Glo, 0 μM = 100, read-out: Survival (%); for viability at 1.1 µM: 1.1 μM test compound; for viability at 10 µM: 10 μM test compound; for viability at 30 µM: 30 μM test compound; for viability at […]: […] test compound
Method: After 3 days, cell viability was measured using CellTiter-Glo Luminescent Cell Viability Assay (Promega) or light microscopy.

HMGN1 [3] = experiment: HMGN1 ELISA in culture medium of foreskin cells (Examples 10, 11; Tables 62, 63, 64); type: cell-based, human; conditions: Homo sapiens, 30 μM test compound, doxorubicin-treated foreskin cells, DMSO = 100; read-out: HMGN1
A549 = experiment: CellTiter-Glo cell viability of senescent A549 cancer cells (Example 12, Table 67); type: cell-based, human; conditions: Homo sapiens, A549, doxorubicin-induced senescent A549 cancer cells, CellTiter-Glo, read-out: Survival (%); for viability at 1.1 µM: 1.1 μM test compound; for viability at 10 µM: 10 μM test compound; for viability at 30 µM: 30 μM test compound
HMGN1 [4] = experiment: HMGN1 ELISA in culture medium of A549 cancer cells (Example 12, Table 66); type: cell-based, human; conditions: Homo sapiens, A549, doxorubicin-induced senescent A549 cells, test compound 30 μM, ELISA, DMSO = 100; read-out: HMGN1 (amount of HMGN1 secreted in the cell culture)
[5] = system: foreskin cells in which aging was induced by doxorubicin; experiment: cell viability of senescent foreskin cells with caspase inhibitor QVD-Oph (Example 10, Table 61); type: cell-based, human; conditions: QVD-Oph 20 μM alone; doxorubicin-senescent foreskin cells

## CCC(C)SSc1ncc[nH]1 (stereo not drawn) [LX-307]
[1]
  Open Field Test Time in Center (%): 159 (±9.9) %
p16, MMP3, IL6
  IL6 mRNA (%): 87.2 (±10.5) %
  MMP3 mRNA (%): 76.7 (±7.7) %
  p16 mRNA (%): 73.1 (±8.5) %
[2]
  viability at 1.1 µM: 101%
  viability at 10 µM: 14.5%
  viability at 30 µM: 3.5%
  viability at […]: 85.6%
HMGN1 [3]
  activity at 30 µM: 258%
A549
  viability at 1.1 µM: 101%
  viability at 10 µM: 72.5%
  viability at 30 µM: 7.6%
HMGN1 [4]
  activity at 30 µM: 305%

## C[C@H]1Cc2c([nH]c3ccccc23)[C@H](c2ccc(C(=O)N[C@]34CC5C[C@H](C[C@H](C5)C3)C4)cc2)N1C(=O)CCl [LX-411]
[1]
  Open Field Test Time in Center (%): 163 (±9) %
p16, MMP3, IL6
  IL6 mRNA (%): 71.9 (±7.2) %
  MMP3 mRNA (%): 92.7 (±8.1) %
  p16 mRNA (%): 79.7 (±6.6) %
[2]
  viability at 1.1 µM: 0.2%
HMGN1 [3]
  activity at 30 µM: 300%
A549
  viability at 1.1 µM: 1.8%
HMGN1 [4]
  activity at 30 µM: 335%

## COc1cc(OC)cc(O[C@H]2OC3O[C@@]4(C)CCC5[C@H](C)CCC([C@H]2C)[C@@]35OO4)c1 (stereo partly drawn) [LX-502]
[1]
  Open Field Test Time in Center (%): 126 (±20.4) %
p16, MMP3, IL6
  IL6 mRNA (%): 83.3 (±5.1) %
  MMP3 mRNA (%): 77.4 (±8)^ %
  p16 mRNA (%): 81.7 (±7.8) %
[2]
  viability at 1.1 µM: 59.1%
  viability at […]: 10.4%
HMGN1 [3]
  activity at 30 µM: 274%
A549
  viability at 1.1 µM: 78.4%
HMGN1 [4]
  activity at 30 µM: 321%

## COCC1(CO)C(=O)C2CCN1CC2 (stereo not drawn) [LX-701, Eprenetapopt, reference compound]
[1]
  Open Field Test Time in Center (%): 181.8 (±27.1) %
p16, MMP3, IL6
  IL6 mRNA (%): 68.2 (±14.3) %
  MMP3 mRNA (%): 72.5 (±9.2) %
  p16 mRNA (%): 81.9 (±6.8) %
[2]
  viability at 1.1 µM: 99.3%
  viability at 10 µM: 45.9%
  viability at 30 µM: 27.4%
  viability at […]: 100%
HMGN1 [3]
  activity at 30 µM: 277%
A549
  viability at 1.1 µM: 99.2%
  viability at 10 µM: 91%
  viability at 30 µM: 11.3%
HMGN1 [4]
  activity at 30 µM: 297%

## CCOc1ccccc1-n1c(CN2CCNCC2)nc2ccccc2c1=O [LX-1002]
[1]
  Open Field Test Time in Center (%): 141.1 (±18.3) %
p16, MMP3, IL6
  IL6 mRNA (%): 74.4 (±8.5) %
  MMP3 mRNA (%): 68.1 (±13.8) %
  p16 mRNA (%): 77.4 (±8.6) %
[2]
  viability at 1.1 µM: 4.2%
HMGN1 [3]
  activity at 30 µM: 286%
A549
  viability at 1.1 µM: 47.6%
HMGN1 [4]
  activity at 30 µM: 296%

## Fc1ccc(-n2cc(CCCCN3CCC4(CC3)OCc3ccccc34)c3ccccc32)cc1 [LX-1102, Siramesine, reference compound]
[1]
  Open Field Test Time in Center (%): 146.2 (±17.1) %
p16, MMP3, IL6
  IL6 mRNA (%): 76.2 (±7.1) %
  MMP3 mRNA (%): 95.4 (±9.6) %
  p16 mRNA (%): 82.9 (±4.8) %
[2]
  viability at 1.1 µM: 94%
  viability at 10 µM: 3.1%
  viability at […]: 13.9%
HMGN1 [3]
  activity at 30 µM: 271%
A549
  viability at 1.1 µM: 99.5%
  viability at 10 µM: 17.7%
HMGN1 [4]
  activity at 30 µM: 324%

## CCc1ccc(C(=O)C(C)CN2CCCCC2)cc1 (stereo not drawn) [LX-1401, Eperisone, reference compound]
[1]
  Open Field Test Time in Center (%): 166.7 (±14.8) %
p16, MMP3, IL6
  IL6 mRNA (%): 72.8 (±10.4) %
  MMP3 mRNA (%): 75.1 (±9.4) %
  p16 mRNA (%): 83.4 (±6.9) %
[2]
  viability at 1.1 µM: 96.4%
  viability at 10 µM: 10.2%
  viability at 30 µM: 9%
  viability at […]: 88.1%
HMGN1 [3]
  activity at 30 µM: 296%
A549
  viability at 1.1 µM: 99%
  viability at 10 µM: 49.9%
  viability at 30 µM: 22.8%
HMGN1 [4]
  activity at 30 µM: 287%

## C[C@@H]1CC[C@@]23C[C@H](O)C(=O)[C@@]2(O)[C@]1(C)[C@H](OC(=O)CCl)C[C@@H](C1=CCn2c(=O)n(-c4ccccc4)c(=O)n2C1)[C@@H]3C [LX-1801, (2S,3aS,4S,5R,7R,8S,8aS,11R)-7-(1,3-Dioxo-2-phenyl-2,3,5,8-tetrahydro-1H-[1,2,4]triazolo[1,2-a]pyridazin-6-yl)-2,3a-dihydroxy-4,8,11-trimethyl-3-oxooctahydro-1H-4,8a-propanoazulen-5-yl 2-Chloroacetate]
[1]
  Open Field Test Time in Center (%): 173.4 (±18.6) %
p16, MMP3, IL6
  IL6 mRNA (%): 56.4 (±12.4) %
  MMP3 mRNA (%): 67.8 (±13.1) %
  p16 mRNA (%): 62.5 (±9.4) %
[2]
  viability at 1.1 µM: 8.7%
HMGN1 [3]
  activity at 30 µM: 291%
A549
  viability at 1.1 µM: 60.6%
  viability at 10 µM: 25.1%
HMGN1 [4]
  activity at 30 µM: 295%

## CC1(C)CC[C@]2(NC(=O)C(C)(F)F)CC[C@]3(C)[C@H](C(=O)C=C4[C@@]5(C)C=C(C#N)C(=O)C(C)(C)[C@@H]5CC[C@]43C)[C@@H]2C1 [LX-2101, Omaveloxolone, reference compound]
[1]
  Open Field Test Time in Center (%): 144.9 (±26.6) %
p16, MMP3, IL6
  IL6 mRNA (%): 75.9 (±6.7) %
  MMP3 mRNA (%): 68.3 (±16.4) %
  p16 mRNA (%): 73.8 (±9.7) %
[2]
  viability at 1.1 µM: 1.8%
HMGN1 [3]
  activity at 30 µM: 274%
A549
  viability at 1.1 µM: 71.6%
HMGN1 [4]
  activity at 30 µM: 297%

## CC(C)[C@H](NC(=O)c1ccc2ccccc2n1)C(=O)N[C@@H](CC(=O)O)C(=O)COc1c(F)cccc1F [QVD]
[5]
  Survial (%): 105.1 (±4.7) %
